# Earlier results in patent US20260272607A1, “METHOD OF MARKING LESIONS” (Cook Medical Technologies LLC, priority 2023, published 2026).
# System: lung nodules
# Details: ICG dye marking without use of a coil; prior experience
smiles,measurement,value
"CC1(C)C(/C=C/C=C/C=C/C=C2\N(CCCCS(=O)(=O)O)c3ccc4ccccc4c3C2(C)C)=[N+](CCCCS(=O)(=O)[O-])c2ccc3ccccc3c21 [ICG dye, indocyanine green]",persistence of dye effect after ICG dye marking without a coil,fade away over several hours
